From patent publication US4039660A, “Antibiotic Y-G19Z D3 and the production thereof” (Yamanouchi Pharmaceutical Co., Ltd., priority 1974, dated 1977)

Tests used:
Assay in all cases: Inhibition zone, disc on seeded Heart infusion agar
Assay type in all cases: cell-based
[1] = tested on: Basillus subtilis ATCC 6633; conditions: read-out: diameter of the inhibition zone
Description: (§1) Antimicrobial activities of Y-G19ZD3 in comparison with those of Cephalosporin C against various microorganisms are shown in Table 3. The figure indicates the diameter (mm) of the inhibition zone obtained with a disc dipped in 125 mcg/ml solution on Heart infusion agar seeded with each organism.

[2] = tested on: Klebsiella pneumoniae; conditions: disc dipped in 125 mcg/ml solution, read-out: diameter of the inhibition zone
Description: as §1

[3] = tested on: Proteus mirabilis IMF-OM9; conditions: IMFOM9, read-out: diameter of the inhibition zone
Description: as §1

[4] = tested on: Proteus morganii; conditions: Morganella morganii, disc dipped in 125 mcg/ml solution, read-out: diameter of the inhibition zone
Description: as §1

[5] = tested on: Proteus vulgaris; conditions: disc dipped in 125 mcg/ml solution, read-out: diameter of the inhibition zone
Description: as §1

[6] = tested on: Sarcina lutea ATCC 9941; conditions: Micrococcus luteus, ATCC9941, read-out: diameter of the inhibition zone
Description: as §1

[7] = tested on: Staphylococcus aureus 209 P; conditions: disc dipped in 125 mcg/ml solution, read-out: diameter of the inhibition zone
Description: as §1

Work on `CC(=O)OCC1=C(C(=O)O)N2C(=O)[C@@H](NC(=O)CCC[C@@H](N)C(=O)O)[C@H]2SC1` [Cephalosporin C] yielded a zone of inhibition at 125 µg/mL [1] of 13.5 mm, a zone of inhibition at 125 µg/mL [2] of 0 mm and a zone of inhibition at 125 µg/mL [3] of 17.6 mm. The zone of inhibition at 125 µg/mL [4] was 0 mm, the zone of inhibition at 125 µg/mL [5] was 0 mm and the zone of inhibition at 125 µg/mL [6] was 0 mm. It also gave a zone of inhibition at 125 µg/mL [7] of 0 mm.
